Measured values from PubChem BioAssay (NCI).
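1) Cells in 96-well plates. 2) Compound, 48 h, 5 concentrations. 3) Linear interpolation between surrounding doses. 4) Unreached endpoint = highest concentration. At the GI50, growth is halved. The concentration for full growth arrest is given as TGI.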

How the values were obtained:
Experiment in all cases: inhibition of tumour cell growth, NCI panel, 48 h
SF-268 CNS = tested on: SF-268 CNS
HOP-62 NSCLC = tested on: HOP-62 NSCLC
K-562 leukemia = tested on: K-562 leukemia
A549 NSCLC = tested on: A549 NSCLC
HL-60(TB) leukemia = tested on: HL-60(TB) leukemia
SK-OV-3 ovarian = tested on: SK-OV-3 ovarian
UACC-257 melanoma = tested on: UACC-257 melanoma
UO-31 renal = tested on: UO-31 renal
SN12C renal = tested on: SN12C renal
MDA-MB-435 = tested on: MDA-MB-435

Structure (SMILES) | TGI (SF-268 CNS) [µM] | TGI (HOP-62 NSCLC) [µM] | TGI (K-562 leukemia) [µM] | TGI (A549 NSCLC) [µM] | TGI (HL-60(TB) leukemia) [µM] | TGI (SK-OV-3 ovarian) [µM] | TGI (UACC-257 melanoma) [µM] | TGI (UO-31 renal) [µM] | TGI (SN12C renal) [µM] | TGI (MDA-MB-435) [µM] | GI50 (MDA-MB-435) [µM] | GI50 (SF-268 CNS) [µM] | GI50 (HOP-62 NSCLC) [µM] | GI50 (A549 NSCLC) [µM] | GI50 (HL-60(TB) leukemia) [µM] | GI50 (SK-OV-3 ovarian) [µM] | GI50 (UACC-257 melanoma) [µM] | GI50 (UO-31 renal) [µM] | GI50 (SN12C renal) [µM]
O=c1c2c(nc3n1CCC3)sc1c(O)c(Br)ccc12 | > 100 | 45.3 | 59.2 | 29.9 | 33.8 | > 100 | 30.7 | 45.8 | 43.1 | – | – | – | – | – | – | – | – | – | –
Cc1cc2occ(-c3ccc(Cl)cc3)c2c(=O)o1 | > 100 | > 100 | > 100 | > 100 | > 100 | > 100 | > 100 | > 100 | > 100 | – | – | – | – | – | – | – | – | – | –
O=C(CSc1nc2ccc(I)cc2c(=O)n1Cc1ccccc1)NN1C(=O)CCC1=O | > 100 | > 100 | > 100 | > 100 | 87.6 | > 100 | > 100 | – | > 100 | > 100 | – | – | – | – | – | – | – | – | –
CC(=O)NC1=C(NCC(C)C)C(=O)c2ccccc2C1=O | 46.3 | > 100 | 36.7 | > 100 | 7.32 | > 100 | 36.4 | 34.4 | 31.2 | – | – | – | – | – | – | – | – | – | –
Cc1cn([C@H]2[C@@H](CO)C[C@H]2O)c(=O)[nH]c1=O | > 100 | > 100 | > 100 | > 100 | > 100 | – | > 100 | > 100 | > 100 | > 100 | – | – | – | – | – | – | – | – | –
CC(=O)Nc1ccc(C(=O)N2N=C(C)/C(=C/c3ccc(O)cc3)C2=O)cc1 | > 100 | > 100 | > 100 | > 100 | > 100 | – | > 100 | > 100 | > 100 | – | – | – | – | – | – | – | – | – | –
CCOC(=O)c1nc2ccccc2nc1NCc1ccc(Cl)cc1Cl | > 100 | > 100 | > 100 | > 100 | – | > 100 | > 100 | > 100 | – | > 100 | – | – | – | – | – | – | – | – | –
N#CCCC1(CCC#N)CCCCCCC(CCC#N)(CCC#N)C(O)C1O (stereo not given) | > 100 | > 100 | > 100 | > 100 | – | > 100 | > 100 | > 100 | > 100 | > 100 | – | – | – | – | – | – | – | – | –
CC(c1ccccc1)N1CC(C)(c2ccccc2)N(O)C(c2ccccc2)C1C (stereo not given) | 31.3 | 38.9 | > 100 | 37.8 | 13.5 | 87.8 | 45.1 | 10.2 | – | – | – | – | – | – | – | – | – | – | –
C=C1CC(Cn2cc(Br)c(=O)[nH]c2=O)(c2ccc(-c3ccccc3)cc2)OC1=O (stereo not given) | 4.64 | 19.3 | > 100 | 21.6 | – | 15.9 | 2.53 | 3.93 | 4.67 | 2.36 | – | – | – | – | – | – | – | – | –
COc1cc(-n2cc(-c3cc(O)c(C/C=C(\C)CCC=C(C)C)c(O)c3)nn2)cc2c1O[C@]1(C)CC[C@@H](O)C(C)(C)[C@H]1C2 | 30.4 | 12.7 | – | 20.7 | 3.88 | 33.3 | 48.4 | 1.96 | > 41.4 | 27.6 | 1.22 | 2.03 | 0.564 | 1.12 | 0.0655 | 2.3 | 5.09 | 0.365 | 3.86
